Test results from US11046686B2, “Thiadiazole IRAK4 compounds” (Gilead Sciences, Inc., priority 2018, dated 2021).
pEC50, pIC50: −log10 of the molar value.

molecular target: IRAK4 enzyme (Homo sapiens (Human), UniProt Q9NWZ3); assay: IRAK4 Biochemical Assay (TR-FRET, STK1 KinEASE); conditions: not given
Experimental: IRAK4 enzyme (Carna Biosciences, Chuo-ku, Kobe, Japan) activity was measured by detecting phosphorylated peptide substrate formation using an antibody against the phosphorylated peptide substrate. This is a time-resolved fluorescence resonance energy transfer (TR-FRET) immunoassay, based on the STK1 KinEASE Assay (Cisbio, Bedford, Mass.). The assay was designed as a simple two-step, endpoint assay (a 5 μl enzyme reaction followed by 5 μl stop and detect Solution) performed in ProxiPlate-384 Plus plates (Perkin Elmer, Waltham, Mass.). […] Compounds diluted in DMSO were spotted into 384 well plates using a Labcyte® Echo 550 Liquid Handling System prior to addition of IRAK4 enzyme and peptide substrate. Reaction solutions were delivered using a Multi-Flo (Bio-Tek Instruments). The enzyme and peptide solution was incubated with compound for 15 minutes at room temp before the reaction was initiated by the addition of ATP. The standard 5 μl reaction mixture contained 500 μM ATP, […] peptide (STK1 Peptide), 0.75 nM of IRAK4 in reaction buffer (50 mM HEPES, pH 7.0, 0.02% NaN3, 0.01% BSA, 0.1 mM Orthovanadate, 5 mM […], 0.025% NP-40, 1 mM DTT). After 120 min of incubation at room temperature, 5 μl of Stop and Detect Solution (1:100 Cryptate labeled anti-phosphorylated peptide antibody solution and 125 nM Tracer in a 50 mM HEPES pH 7.0 detection buffer containing sufficient EDTA) was added. The plate was then further incubated for 60 minutes at room temperature and read on Envision 2103 Multilabeled reader (PerkinElmer) with excitation/emission/FRET emission at 340 nm/615 nm665 nm, respectively. Fluorescence intensities at 615 nm and 665 nm emission wavelengths were expressed as aratio (665 nm/615 nm). Percentage of inhibition was calculated as below: % Inhibition=100×(Ratiosample−Ratio0% Inhibition)/(Ratio100% Inhibition−Ratio0% Inhibition)
The 0% inhibition value comes from control wells lacking inhibitor.

Sequence of IRAK4 enzyme (Q9NWZ3 whole entry): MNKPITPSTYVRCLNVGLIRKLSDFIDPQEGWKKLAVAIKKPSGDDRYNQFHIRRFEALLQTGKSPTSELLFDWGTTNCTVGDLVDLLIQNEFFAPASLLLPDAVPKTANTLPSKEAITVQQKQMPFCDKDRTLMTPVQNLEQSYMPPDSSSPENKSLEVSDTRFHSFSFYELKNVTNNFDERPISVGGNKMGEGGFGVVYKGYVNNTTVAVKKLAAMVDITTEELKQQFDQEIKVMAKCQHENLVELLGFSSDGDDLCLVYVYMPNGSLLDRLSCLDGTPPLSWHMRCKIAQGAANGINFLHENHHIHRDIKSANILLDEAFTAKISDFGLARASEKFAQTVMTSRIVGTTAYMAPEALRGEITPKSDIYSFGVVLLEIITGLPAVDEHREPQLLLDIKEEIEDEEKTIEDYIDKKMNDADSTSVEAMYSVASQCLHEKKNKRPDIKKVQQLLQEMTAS

In order of falling pIC50:
1. CC(=O)NC12CCC(c3nnc(-c4cnc(-c5ccc6cc(C#N)cnn56)cc4N[C@H](C)C#N)s3)(CC1)CC2 [Example 72, (R)—N-(4-(5-(4-((1-cyanoethyl)amino)-6-(3-cyanopyrrolo[1,2-b]pyridazin-7-yl)pyridin-3-yl)-1,3,4-thiadiazol-2-yl)bicyclo[2.2.2]octan-1-yl)acetamide]  9.27
2. CC(C)Nc1cc(-c2ccc3cc(C#N)cnn23)ncc1-c1nnc(N2C[C@H]3CC[C@@H](C2)[C@@H]3NC(=O)N2CCN(C)CC2)s1 [Example 96, N-((1R,5S,8s)-3-(5-(6-(3-cyanopyrrolo[1,2-b]pyridazin-7-yl)-4-(isopropylamino)pyridin-3-yl)-1,3,4-thiadiazol-2-yl)-3-azabicyclo[3.2.1]octan-8-yl)-4-methylpiperazine-1-carboxamide]  9.24
3. CC(C)Nc1cc(-c2ccc3cc(C#N)cnn23)ncc1-c1nnc(C2CCNCC2)s1 [Example 129, 7-(4-(isopropylamino)-5-(5-(piperidin-4-yl)-1,3,4-thiadiazol-2-yl)pyridin-2-yl)pyrrolo[1,2-b]pyridazine-3-carbonitrile]  9.23
4. CC(C)Nc1cc(-c2ccc3cc(C#N)cnn23)ncc1-c1nnc(C(=O)N2CCC[C@H]2CN)s1 [Example 229, (S)-7-(5-(5-(2-(aminomethyl)pyrrolidine-1-carbonyl)-1,3,4-thiadiazol-2-yl)-4-(isopropylamino)pyridin-2-yl)pyrrolo[1,2-b]pyridazine-3-carbonitrile]  9.19
5. CC(C)Nc1cc(-c2ccc3cc(C#N)cnn23)ncc1-c1nnc([C@H]2C[C@H](NC3COC3)C2)s1 [Example 283, 7-(4-(isopropylamino)-5-(5-((1r,3r)-3-(oxetan-3-ylamino)cyclobutyl)-1,3,4-thiadiazol-2-yl)pyridin-2-yl)pyrrolo[1,2-b]pyridazine-3-carbonitrile]  9.18
6. CC(C)Nc1cc(-c2ccc3cc(C#N)cnn23)ncc1-c1nnc(C(=O)N2CCC[C@@H]2CN)s1 [Compound 230, (R)-7-(5-(5-(2-(aminomethyl)pyrrolidine-1-carbonyl)-1,3,4-thiadiazol-2-yl)-4-(isopropylamino)pyridin-2-yl)pyrrolo[1,2-b]pyridazine-3-carbonitrile]  9.13
7. CC(=O)NC12CCC(c3nnc(-c4cnc(-c5ccc6cc(C#N)cnn56)cc4NC4COC4)s3)(CC1)OC2 [Example 198, N-(1-(5-(6-(3-cyanopyrrolo[1,2-b]pyridazin-7-yl)-4-(oxetan-3-ylamino)pyridin-3-yl)-1,3,4-thiadiazol-2-yl)-2-oxabicyclo[2.2.2]octan-4-yl)acetamide]  9.10
8. CC(=O)N1CCN(C(=O)N[C@@H]2[C@@H]3CC[C@H]2CN(c2nnc(-c4cnc(-c5ccc6cc(C#N)cnn56)cc4NC(C)C)s2)C3)CC1 [Example 104, 4-acetyl-N-((1R,5S,8s)-3-(5-(6-(3-cyanopyrrolo[1,2-b]pyridazin-7-yl)-4-(isopropylamino)pyridin-3-yl)-1,3,4-thiadiazol-2-yl)-3-azabicyclo[3.2.1]octan-8-yl)piperazine-1-carboxamide]  9.00
9. CC(C)Nc1cc(-c2ccc3cc(C#N)cnn23)ncc1-c1nnc(N2C[C@H]3CC[C@@H](C2)[C@@H]3NC(=O)[C@@H](C)O)s1 [Example 90, (R)—N-((1R,5S,8s)-3-(5-(6-(3-cyanopyrrolo[1,2-b]pyridazin-7-yl)-4-(isopropylamino)pyridin-3-yl)-1,3,4-thiadiazol-2-yl)-3-azabicyclo[3.2.1]octan-8-yl)-2-hydroxypropanamide]  8.86

tested on: TNFα; assay: IRAK4 Monocyte TNFα Cell Based Assay; design: species or system human; conditions: Homo sapiens, Monocyte, human monocytes; second part of Table 2, compounds 33-343; unit inferred; read-out: EC50 MONO TNF HTRF
Summary of the method: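 Human monocytes (5,000/well) pretreated with compound 1 h at 37 °C (0.1% DMSO final), then stimulated with 50 pg/ml LPS for 4 h. Secreted TNFα measured by TR-FRET two-antibody detection after overnight incubation at room temperature; % control relative to unstimulated and LPS-stimulated wells.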

CC(C)Nc1cc(-c2ccc3cc(C#N)cnn23)ncc1-c1nnc(N2CCC(F)(F)CC2)s1 [Example 294, 7-(5-(5-(4,4-difluoropiperidin-1-yl)-1,3,4-thiadiazol-2-yl)-4-(isopropylamino)pyridin-2-yl)pyrrolo[1,2-b]pyridazine-3-carbonitrile] was tested, and the pEC50 was 6.00.

same assay, conditions: human monocytes; second part of Table 2, compounds 33-343; unit inferred; read-out: EC50 MONO TNF HTRF

In order of falling pEC50:
1. CC(C)Nc1cc(-c2ccc3cc(C#N)cnn23)ncc1-c1nnc(N2C[C@H]3CC[C@@H](C2)[C@@H]3N2CCOC2=O)s1 [Example 301, 7-(4-(isopropylamino)-5-(5-((1R,5S,8s)-8-(2-oxooxazolidin-3-yl)-3-azabicyclo[3.2.1]octan-3-yl)-1,3,4-thiadiazol-2-yl)pyridin-2-yl)pyrrolo[1,2-b]pyridazine-3-carbonitrile]  8.31
2. CC(=O)N(C)[C@@H]1[C@@H]2CC[C@H]1CN(c1nnc(-c3cnc(-c4ccc5cc(C#N)cnn45)cc3NC(C)C)s1)C2 [Example 300]  8.28
3. CC(=O)N1C[C@@H]2C[C@H]1CN2c1nnc(-c2cnc(-c3ccc4cc(C#N)cnn34)cc2NC(C)C)s1 [Example 302, 7-(5-(5-((1S,4S)-5-acety1-2,5-diazabicyclo[2.2.1]heptan-2-yl)-1,3,4-thiadiazol-2-yl)-4-(isopropylamino)pyridin-2-yl)pyrrolo[1,2-b]pyridazine-3-carbonitrile]  8.28
4. CNc1cc(-c2ccc3cc(C#N)cnn23)ncc1-c1nnc(N2C[C@H]3CC[C@@H](C2)[C@@H]3NC(C)=O)s1 [Example 292, N-((1R,5S,8s)-3-(5-(6-(3-cyanopyrrolo[1,2-b]pyridazin-7-yl)-4-(methylamino)pyridin-3-yl)-1,3,4-thiadiazol-2-yl)-3-azabicyclo[3.2.1]octan-8-yl)acetamide]  8.17
5. CC(C)Nc1cc(-c2ccc3cc(C#N)cnn23)ncc1-c1nnc(N2CCC(C)(O)CC2)s1 [Example 287, 7-(5-(5-(4-hydroxy-4-methylpiperidin-l-yl)-1,3,4-thiadiazol-2-yl)-4-(isopropylamino)pyridin-2-yl)pyrrolo[1,2-b]pyridazine-3-carbonitrile]  8.01
6. CC(C)Nc1cc(-c2ccc3cc(C#N)cnn23)ncc1-c1nnc(N2CCN(C3COC3)CC2)s1 [Example 304]  8.01
7. CC(C)Nc1cc(-c2ccc3cc(C#N)cnn23)ncc1-c1nnc([C@H]2CC[C@H](NC(=O)C(C)(C)O)CC2)s1 [Example 315, N-((1r,4r)-4-(5-(6-(3-cyanopyrrolo[1,2-b]pyridazin-7-yl)-4-(isopropylamino)pyridin-3-yl)-1,3,4-thiadiazol-2-yl)cyclohexyl)-2-hydroxy-2-methylpropanamide]  7.96
8. CC(=O)NC[C@H]1C[C@H](c2nnc(-c3cnc(-c4ccc5cc(C#N)cnn45)cc3NC(C)C)s2)C1 [Example 290, N-(((1r,3r)-3-(5-(6-(3-cyanopyrrolo[1,2-b]pyridazin-7-yl)-4-(isopropylamino)pyridin-3-yl)-1,3,4-thiadiazol-2-yl)cyclobutyl)methyl)acetamide]  7.79
9. CC(C)Nc1cc(-c2ccc3cc(C#N)cnn23)ncc1-c1nnc([C@H]2CC[C@@H](NC(=O)C(C)(C)O)CC2)s1 [Example 312, N-((1s,4s)-4-(5-(6-(3-cyanopyrrolo[1,2-b]pyridazin-7-yl)-4-(isopropylamino)pyridin-3-yl)-1,3,4-thiadiazol-2-yl)cyclohexyl)-2-hydroxy-2-methylpropanamide]  7.76
10. CC(C)Nc1cc(-c2ccc3cc(C#N)cnn23)ncc1-c1nnc(N2C[C@H]3CC[C@@H](C2)[C@@H]3Nc2ncccn2)s1 [Example 308, 7-(4-(isopropylamino)-5-(5-((1R,5S,8s)-8-(pyrimidin-2-ylamino)-3-azabicyclo[3.2.1]octan-3-yl)-1,3,4-thiadiazol-2-yl)pyridin-2-yl)pyrrolo[1,2-b]pyridazine-3-carbonitrile]  7.74
11. CC(=O)NC[C@H]1C[C@@H](c2nnc(-c3cnc(-c4ccc5cc(C#N)cnn45)cc3NC(C)C)s2)C1 [Example 289, N-(((1s,3s)-3-(5-(6-(3-cyanopyrrolo[1,2-b]pyridazin-7-yl)-4-(isopropylamino)pyridin-3-yl)-1,3,4-thiadiazol-2-yl)cyclobutyl)methyl)acetamide]  7.67
12. CC(C)(O)C(=O)N[C@H]1CC[C@@H](c2nnc(-c3cnc(-c4ccc5cc(C#N)cnn45)cc3NC3COC3)s2)CC1 [Example 311, N-((1s,4s)-4-(5-(6-(3-cyanopyrrolo[1,2-b]pyridazin-7-yl)-4-(oxetan-3-ylamino)pyridin-3-yl)-1,3,4-thiadiazol-2-yl)cyclohexyl)-2-hydroxy-2-methylpropanamide]  7.65
13. CCOC(=O)Cc1nnc(-c2cnc(-c3ccc4cc(C#N)cnn34)cc2NC(C)C)s1 [Example 318]  6.99
14. CC(C)Nc1cc(-c2ccc3cc(C#N)cnn23)ncc1-c1nnc(N2C[C@H]3CC[C@@H](C2)[C@@H]3Nc2ncccc2F)s1 [Example 309]  6.16
